No end group written: not given here.
Key:
[1] = system: Xanthomonas axonopodis pv. glycines; conditions: for MIC, Xanthomonas axonopodis pv. glycines: serial 2-fold dilutions, 96-well, inoculum ~10^5 CFU/mL, highest 256 µg/mL, 48 h, OD600, NDA = Non-detectable activity; for 1/(log(MICs (mM)), Xanthomonas axonopodis pv. glycines): from MIC, 0 where no detectable activity
Method: MICs were determined using the M7-A6 protocol from the Clinical Laboratory Standards Institute (CLSI). […] Initial bacterium inoculum of ∼10^5 colony forming units/mL were transferred, along with serial 2-fold dilutions of each peptide to 96-well plates and incubated for 12 h. […] For each peptide concentration, optical density (OD600) readings were subtracted from that of the growth medium and divided by the positive control (100% bacterial growth). Inhibitory assays for X. axonopodis pv. glycines were conducted by the same methodology with longer incubation time (48 h).

[2] = system: Pseudomonas aeruginosa ATCC 27853; format: cell-based; conditions: for MIC, Pseudomonas aeruginosa: Mueller-Hinton broth, serial 2-fold dilutions, inoculum ~10^5 CFU/mL, highest 256 µg/mL, 12 h, OD600, NDA = Non-detectable activity; for 1/(log(MICs (mM)), Pseudomonas aeruginosa): from MIC, 0 where no detectable activity
Method: (§1) MICs were determined using the M7-A6 protocol from the Clinical Laboratory Standards Institute (CLSI). Escherichia coli ATCC 25922, Pseudomonas aeruginosa ATCC 27853, Staphylococcus aureus ATCC 29313 were streaked in Mueller-Hinton agar, grown overnight at 37°C, transferred to Mueller-Hinton broth and incubated until readings at 600 nm reached the equivalent of 0.5 in the MacFarland scale. […]. Inhibitory assays for X. axonopodis pv. glycines were conducted by the same methodology with longer incubation time (48 h).

[3] = system: Staphylococcus aureus ATCC 29313; format: cell-based; conditions: for MIC, Staphylococcus aureus: Mueller-Hinton broth, serial 2-fold dilutions, inoculum ~10^5 CFU/mL, highest 256 µg/mL, 12 h, OD600, NDA = Non-detectable activity; for 1/(log(MICs (mM)), Staphylococcus aureus): from MIC, 0 where no detectable activity
Method: as §1

[4] = system: Escherichia coli ATCC 25922; format: cell-based; conditions: for MIC, Escherichia coli: Mueller-Hinton broth, serial 2-fold dilutions, inoculum ~10^5 CFU/mL, highest 256 µg/mL, 12 h, OD600, NDA = Non-detectable activity; for 1/(log(MICs (mM)), Escherichia coli): from MIC, 0 where no detectable activity
Method: as §1

[5] = Far UV circular dichroism of peptides in buffer (MRE, α-helix percentage); format: physicochemical; conditions: for [q]208 nm Buffer (Greenfield 69): Mean Residue Ellipticity at 208 nm; for [q]208 nm Buffer (Greenfield 69) / [q]222 nm Buffer (Chen 74): peptide in buffer, far UV CD; for [q]222 nm Buffer (Chen 74): Mean Residue Ellipticity at 222 nm; for % Helicity (Buffer) (Greenfield 69): from [q]208 nm, methodology of Greenfield et al. 1969; for % Helicity (Buffer) (Chen 74): from [q]222 nm, methodology of Chen et al. 1974
Method: Far UV CD spectra were acquired for peptides at 20 µM in buffer and in the presence of DMPC or 2∶1 DMPC:DMPG LUVs at 1 mol% peptide/phospholipids. Peptides presented different degrees of secondary structures upon LUVs addition. […] Following the addition of LUVs, some peptides changed conformation resulting in spectral features characteristic of α-helical structures.
Experiments were conducted on a Jasco-J810 spectropolarimeter (Jasco International Co., Japan). Spectra were acquired at room temperature from 194 to 260 nm as an average of 4 readings using a 0.1 cm path length cell, data pitch of 0.2 nm and a response time of 0.5 s. Data Scans of buffer and 2 mM DMPC and 2∶1 DMPC:DMPG LUVs solutions were acquired and subtracted from each peptide data. Peptides were scanned at a concentration of 20 µM in buffer and then 100 fold excess of DMPC and 2∶1 DMPC:DMPG LUVs were added, resulting in a molar ratio of 0.01 peptide/phospholipids. […] Proximity to equilibrium was verified by scanning peptides added with twice the LUVs concentration, approximately 4 mM.

Substance	MIC, Xanthomonas axonopodis pv. glycines [1]	MIC, Pseudomonas aeruginosa [2]	1/(log(MICs (mM)), Pseudomonas aeruginosa) [2]	MIC, Staphylococcus aureus [3]	1/(log(MICs (mM)), Staphylococcus aureus) [3]	MIC, Escherichia coli [4]	1/(log(MICs (mM)), Escherichia coli) [4]	[q]208 nm Buffer (Greenfield 69) [5]	[q]222 nm Buffer (Chen 74) [5]	% Helicity (Buffer) (Greenfield 69) [5]	% Helicity (Buffer) (Chen 74) [5]	1/(log(MICs (mM)), Xanthomonas axonopodis pv. glycines) [1]	concentration that inhibited the in vitro growth of X. axonopodis pv. glycines ([1]; in vitro growth)
AAAAAAAIKMLMDLVNERIMALNKKAKK [Q6TV81(25–52)]	<1 µM												
FFFDTLKNLAGKVIGALT [Phes, reference compound]	33 µM												
FINKAGKLQSQLRTTVVAAAAFLDAFQKVA [O43312(33–62)]	80 µM												
FKALRALRLEDLRIPTSYIK [A3KLW0(117–136)]	NDA	NDA	0	NDA	0	NDA	0	-11457	-3442	25.7%	9.8%	0	
FKQFHFKDFNRAFGFMTRVALQAEKL [P61458(35–60)]	40 µM												
FLSLIPHAINAVSTLVHHF [PS -2, reference compound]	121 µM												
FVTNSKRLAEGIEKGVGNSILIKVN [Q8KG25(327–351)]	NDA	NDA	0	NDA	0	NDA	0	-7856	-6669	13.3%	18.9%	0	
GHRGALKDWVQAAGGAVAAFDFTTKG [Q8RW88(70–95)]	NDA	NDA	0	NDA	0	NDA	0	-4005	-6062	0.0168%	17.2%	0	
GIGDILKNLAKAAGKAALHAVGESL [HSP-4, reference compound]	<2 µM												
GIGKFLHSAKKFGKAFVGEIMNS-NH2 [Magainin-2 amide, reference compound]	13 µM												
GKFHQIKKMFLSVGVKVTSLKRIQFGDF [A5LDU0(184–211)]	10 µM												
GLKDMIKNLAKEAAVKLAGAVINKFSPQPQ [Nattererin-1, reference compound]	<1 µM												
GLNTLKKVIQGLHEVIKLVNNHA [Pseudin B, reference compound]	<2 µM												
GLWQIFSSKEEGKDNSQQKSKGDQAKEL [gb|ACU24018.1|(73–101)]	NDA	NDA	0	NDA	0	NDA	0	-7591	-2129	12.4%	6%	0	
GLWSTIKQKGKE [DS 01 (1–12), reference compound]	NDA	NDA	0	NDA	0	NDA	0	-9158	-2137	17.8%	6.1%	0	
GLWSTIKQKGKEAAIAAAKAAGQAALGAL [DS 01, reference compound]	<1 µM												
GVLDILKGAAKDLAGHVATKVINKI [Syphaxin, reference compound]	25 µM												
Gm0026x00785(77–103) (HKMDLHWYLRTLEEVVIRALQRFQFR)													10 µM
IAAAQRITSGAADIAINWAGGLHHAKK [B0CZJ3(104–130)]	NDA	NDA	0	NDA	0	NDA	0	-17825	-7158	47.7%	20.3%	0	
KAGLQFPVGRIARFLK [B4FGE3(22–37)]	NDA	NDA	0	NDA	0	NDA	0	-5213	-1506	4.2%	4.3%	0	
KLKKLLAGQKDGLLGQIAAMSDLYTKK [P94692(929–955)]	NDA	NDA	0	NDA	0	NDA	0	-6507	-2066	8.6%	5.9%	0	
LAKRRVLTLLRQLRRVSPSS [Q7YRI0(9–28)]	<2 µM												
LRPAILVRVKGKGL [Hyposin HA-6, reference compound]	42 µM												
LVQRFHAYLHKFREAFMNVGAAAAVEGTKAA [A4HW34(187–217)]	37 µM												
SLWKNLSRKISGAVKAQPDLHTLLPLPGS [Q9XEY7(120–148)]	NDA	NDA	0	NDA	0	NDA	0	-11377	-2931	25.4%	8.3%	0	
VWTTAMEKSSAANFSMSRNQRRSSLHSL [gb|AAD22970.1|(120–148)]	NDA	NDA	0	NDA	0	NDA	0					0	
